Reference: patent publication US9550763B2, “Heterocyclic ring and carbocyclic derivative” (Shionogi & Co., Ltd., priority 2012, dated 2017)

Target: human P2X3 receptor (Homo sapiens (Human), UniProt P56373)
Assay: Evaluation of human P2X3 receptor inhibitory activity (Test Example 1-1, FDSS 3000, 96-well, 50 nM ATP)
Format: cell-based
Conditions: human P2X3 receptor in C6BU-1 cells; Test Example 1-1 (compounds I-001 to I-300)
Procedure, shortened: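 C6BU-1 cells stably expressing human P2X3, loaded with 4 μM Fluo-3-AM (pH 7.5), preincubated 5 min with compound before 50 nM ATP challenge; fluorescence followed 4 min on FDSS 3000. IC50 derived from peak/baseline fluorescence ratio, no-compound as 0% and buffer-instead-of-ATP as 100% inhibition.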

Chain of human P2X3 receptor (P56373 whole entry): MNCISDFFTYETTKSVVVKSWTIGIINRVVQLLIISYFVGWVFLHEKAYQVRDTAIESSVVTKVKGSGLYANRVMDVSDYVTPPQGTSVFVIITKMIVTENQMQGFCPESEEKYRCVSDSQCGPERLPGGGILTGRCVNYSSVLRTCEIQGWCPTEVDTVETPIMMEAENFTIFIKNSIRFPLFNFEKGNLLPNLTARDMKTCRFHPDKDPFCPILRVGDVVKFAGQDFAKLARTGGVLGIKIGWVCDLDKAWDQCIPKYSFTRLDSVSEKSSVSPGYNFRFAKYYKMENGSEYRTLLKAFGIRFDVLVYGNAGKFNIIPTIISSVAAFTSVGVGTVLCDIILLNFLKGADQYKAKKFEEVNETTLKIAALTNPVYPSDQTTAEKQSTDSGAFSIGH

Compound | IC50 [nM]
NC(=O)c1cccc(Oc2ccc(Nc3nc(=O)c(C(=O)NC4CCOCC4)cn3Cc3ccc(Cl)cc3)cc2)n1 [Compound I-217] | 5
CCOC(=O)c1c[nH]/c(=N\c2ccc(Oc3cccc(F)n3)c(C)c2)n(Cc2ccc(Cl)cc2)c1=O [Compound I-112] | 24
CCn1c(=O)cc(Nc2ccc(Oc3cccc(C(=O)O)n3)c(F)c2)n(Cc2ccc(Cl)cc2)c1=O [Compound I-033] | 1
CCn1c(=O)cc(Nc2cnc(Oc3cccc(C(N)=O)c3)cn2)n(Cc2ccc(Cl)cc2)c1=O [Compound I-076] | 432
CN(C)CCC(=O)Nc1c[nH]/c(=N\c2ccc(Oc3ccon3)cc2)n(Cc2ccc(Cl)cc2)c1=O [Compound I-185] | 158
CCn1c(=O)cc(Nc2ccc(Oc3cccc(C(=O)O)n3)c(C)c2)n(Cc2ccc(Cl)cc2)c1=O [Compound I-028] | 1
CCOC(=O)/N=C(\NC)Nc1c[nH]/c(=N\c2ccc(Oc3ccon3)cc2)n(Cc2ccc(Cl)cc2)c1=O [Compound I-238] | 990
CCOC(=O)c1cnc(Nc2ccc(Oc3ncc(C(=O)O)s3)cc2)n(Cc2ccc(Cl)cc2)c1=O [Compound I-059] | 6
Cc1ccc(Oc2ccc(/N=c3\[nH]cc(C(N)=O)c(=O)n3Cc3ccc(Cl)cc3)cc2)nn1 [Compound I-180] | 21
C[C@@H](Cn1c(=O)cc(Nc2ccc(Oc3ccccc3)cc2)n(Cc2ccc(Cl)cc2)c1=O)C(=O)O [Compound I-117] | 26
CCc1c[nH]/c(=N\c2ccc(Oc3cccc(C(=O)O)n3)c(C)c2)n(Cc2ccc(Cl)cc2)c1=O [Compound I-148] | 59
Cc1cncc(Oc2ccc(Nc3ncc(NC(=O)C4CCOCC4)c(=O)n3Cc3ccc(Cl)cc3)cc2)n1 [Compound I-136] | 2
CCc1oc2ccc(/N=c3\[nH]cc(NC(=O)C4CCOCC4)c(=O)n3Cc3ccc(Cl)cn3)cc2c1C [Compound I-262] | 98
CCOC(=O)c1c[nH]/c(=N\c2ccc(Oc3ncccc3F)cc2)n(Cc2ccc(Cl)cc2)c1=O [Compound I-107] | 29
COC(=O)[C@@H](C)Cn1c(=O)cc(Nc2ccc(Oc3cccc(C#N)n3)c(F)c2)n(Cc2ccc(Cl)cc2)c1=O [Compound I-122] | 3
CC(=O)N(C)c1c[nH]/c(=N\c2ccc(Oc3cccc(C#N)n3)cc2)n(Cc2ccc(Cl)cc2)c1=O [Compound I-197] | 45
CCc1oc2ccc(Nc3ncc(NC(=O)C4CCOCC4)c(=O)n3CC3CCCCC3)cc2c1C [Compound I-080] | 20
CCn1c(=O)cc(Nc2ccc(Oc3nc(C)c(C(=O)O)s3)cc2)n(Cc2ccc(Cl)cc2)c1=O [Compound I-041] | 3
O=C(Nc1c[nH]/c(=N\c2ccc(Oc3ccon3)cc2)n(Cc2ccc(Cl)cc2)c1=O)c1cocn1 [Compound I-268] | 85
Cc1cc(Nc2ncc(NC(=O)C3CCOCC3)c(=O)n2Cc2ccc(Cl)cc2)ccc1Oc1cccc(F)n1 [Compound I-135] | 2
CCn1c(=O)cc(Nc2ccc(Oc3ncc(C(=O)O)s3)cc2)n(Cc2ccc(Cl)cc2)c1=O [Compound I-013] | 2
C[C@@H](Cn1c(=O)cc(Nc2ccc(Oc3ccon3)cc2)n(Cc2ccc(Cl)cc2)c1=O)C(=O)O [Compound I-121] | 26
Cc1cc(/N=c2\[nH]cc(NC(=O)C3CCOCC3)c(=O)n2Cc2ccc(Cl)cc2)ccc1Oc1ccon1 [Compound I-248] | 6

Compound | IC50 [nM]
CCn1c(=O)cc(Nc2ccc(Oc3cccc(C(=O)OC)c3)cc2)n(Cc2ccc(Cl)cc2)c1=O [Compound I-008, 1-(4-chlorobenzyl)-3-ethyl-6-[4-(3-methoxycarbonylphenoxy)phenylamino]pyrimidin-2,4(1H,3H)-dione] | 38
CCc1oc2ccc(Nc3nc(=O)c(C(=O)NC(CC)CC)cn3Cc3ccc(Cl)cc3)cc2c1C [Compound I-031] | 54
CC(=O)N(C)c1c[nH]/c(=N\c2ccc(Oc3cccc(C(=O)O)n3)cc2)n(Cc2ccc(Cl)cc2)c1=O [Compound I-210] | 17
CCOC(=O)c1cnc(Oc2ccc(Nc3cc(=O)n(CC)c(=O)n3Cc3ccc(Cl)cc3)cc2)s1 [Compound I-010] | 4
CC(=O)Nc1cnc(Nc2ccc(Oc3cccnn3)cc2)n(Cc2ccc(Cl)cc2)c1=O [Compound I-069] | 68
O=C(Nc1c[nH]/c(=N\c2ccc(Oc3ccon3)cc2)n(Cc2ccc(Cl)cc2)c1=O)c1ccccn1 [Compound I-254] | 868
CCC(=O)Nc1c[nH]/c(=N\c2ccc(Oc3cccc(C#N)n3)cc2)n(Cc2ccc(Cl)cc2)c1=O [Compound I-006] | 5
CCC(=O)Nc1c[nH]/c(=N\c2ccc(Oc3ccnc(C(=O)O)c3)cc2)n(Cc2ccc(Cl)cc2)c1=O [Compound I-105] | 5
Cc1cc(Oc2ccc(/N=c3\[nH]cc(NC(=O)C4CCOCC4)c(=O)n3Cc3ccc(Cl)cc3)cc2F)no1 [Compound I-249] | 6
Cc1nsc(Oc2ccc(/N=c3\[nH]cc(C(=O)N(C)C)c(=O)n3Cc3ccc(Cl)cc3)cc2)n1 [Compound I-221] | 65
CCCn1c(=O)cc(Nc2ccc(Oc3cccc(C#N)n3)cc2)n(Cc2ccc(Cl)cc2)c1=O [Compound I-164] | 10
Cc1cc(Nc2nc(=O)c(C(=O)NC3CCOCC3)cn2Cc2ccc(Cl)cc2)ccc1Oc1ncccc1F [Compound I-160] | 26
C=C(C)c1c[nH]/c(=N\c2ccc(Oc3cccc(C#N)n3)cc2)n(Cc2ccc(Cl)cc2)c1=O [Compound I-147] | 112
CCn1c(=O)cc(Nc2ccc(Oc3cccc(C#N)n3)c(C)c2)n(Cc2ccc(Cl)cc2)c1=O [Compound I-012] | 2
CCc1oc2ccc(Nc3ncc(C(N)=O)c(=O)n3Cc3ccc(Cl)cc3)cc2c1C [Compound I-020] | 50
CCCn1c(=O)cc(Nc2ccc(Oc3cccc(C#N)c3)c(C)n2)n(Cc2ccc(Cl)cc2)c1=O [Compound I-247] | 96
CCn1c(=O)cc(Nc2ccc(Oc3ccc(C(=O)O)nn3)cc2)n(Cc2ccc(Cl)cc2)c1=O [Compound I-174] | 36
NC(=O)c1c[nH]/c(=N\c2ccc(Oc3cccc(F)n3)cc2)n(Cc2ccc(Cl)cc2)c1=O [Compound I-034] | 14
CCc1oc2ccc(/N=c3\[nH]cc(CC(C)=O)c(=O)n3Cc3ccc(Cl)cc3)cc2c1C [Compound I-102] | 267
CCc1oc2ccc(Nc3nc(=O)c(C(=O)O)cn3Cc3ccc(Cl)cc3)cc2c1C [Compound I-017] | 401
CCC(=O)Nc1c[nH]/c(=N\c2ccc(Oc3ccnc(C(=O)OC)c3)cc2)n(Cc2ccc(Cl)cc2)c1=O [Compound I-098] | 11
O=C(NC1CCOCC1)c1cn(Cc2ccc(Cl)cc2)c(Nc2ccc(Oc3ccncc3)cc2)nc1=O [Compound I-199] | 8
O=C(Nc1cnc(Nc2ccc(Oc3ccc(F)cn3)cc2)n(Cc2ccc(Cl)cc2)c1=O)C1CCOCC1 [Compound I-133] | 1

Compound | IC50 [nM]
Cc1ccc(Oc2ccc(/N=c3\[nH]cc(C(=O)O)c(=O)n3Cc3ccc(Cl)cc3)cc2)nn1 [Compound I-179] | 359
CCCn1c(=O)cc(Nc2ccc(Oc3cccc(C(=O)O)c3)cn2)n(Cc2ccc(Cl)cc2)c1=O [Compound I-167] | 35
NC(=O)c1cc(Oc2ccc(Nc3nc(=O)c(C(=O)NC4CCOCC4)cn3Cc3ccc(Cl)cc3)cc2)ccn1 [Compound I-240] | 6
CCn1c(=O)cc(Nc2ccc(Oc3cccc(C#N)c3)c(C)n2)n(Cc2ccc(Cl)cc2)c1=O [Compound I-246] | 71
CCn1c(=O)cc(Nc2ccc(Oc3cncc(C(N)=O)c3)cc2)n(Cc2ccc(Cl)cc2)c1=O [Compound I-001] | 11
O=C(Nc1c[nH]/c(=N\c2ccc(Oc3ccon3)cc2)n(Cc2ccc(Cl)cc2)c1=O)C1CCOC1 (stereo not shown) [Compound I-213] | 27
COC(=O)Nc1c[nH]/c(=N\c2ccc(Oc3cccc(C(N)=O)n3)cc2)n(Cc2ccc(Cl)cc2)c1=O [Compound I-007] | 23
CCn1c(=O)cc(Nc2ccc(Oc3ncc(C(N)=O)s3)cc2)n(Cc2ccc(Cl)cc2)c1=O [Compound I-039] | < 4
COc1ccc(-c2c[nH]/c(=N\c3ccc(Oc4ccon4)cc3)n(Cc3ccc(Cl)cc3)c2=O)cn1 [Compound I-204] | 198
Cc1ccc(Oc2ccc(Nc3nc(=O)c(C(=O)NCC(=O)N(C)C)cn3Cc3ccc(Cl)cc3)cc2)nn1 [Compound I-298] | 23
CN(C)C(=O)c1c[nH]/c(=N\c2ccc(Oc3cccc(C(N)=O)n3)cc2)n(Cc2ccc(Cl)cc2)c1=O [Compound I-220] | 178
O=C(NC1CCOCC1)c1cn(Cc2ccccn2)c(Nc2ccc(Oc3cccc(F)n3)cc2)nc1=O [Compound I-295] | 618
CCOC(=O)c1c[nH]/c(=N\c2ccc(Oc3ccc(C)nn3)cc2)n(Cc2ccc(Cl)cc2)c1=O [Compound I-177] | 14
COC(=O)[C@@H](C)Cn1c(=O)cc(Nc2ccc(Oc3ccon3)cc2)n(Cc2ccc(Cl)cc2)c1=O [Compound I-114] | 17
CCn1c(=O)cc(Nc2ccc(Oc3ccc(C(=O)O)cc3)nc2)n(Cc2ccc(Cl)cc2)c1=O [Compound I-063] | 422
CCC(=O)Nc1c[nH]/c(=N\c2ccc(Oc3ccc(C(N)=O)nc3)cc2)n(Cc2ccc(Cl)cc2)c1=O [Compound I-095] | 8
COC(=O)[C@@H](C)Cn1c(=O)cc(Nc2ccc(Oc3cccc(F)c3)c(C)n2)n(Cc2ccc(Cl)cc2)c1=O [Compound I-244] | 646
O=C(O)c1c[nH]/c(=N\c2ccc(Oc3ccon3)cc2)n(Cc2ccc(Cl)cc2)c1=O [Compound I-099] | 534
O=c1c(-c2cccnc2)c[nH]/c(=N\c2ccc(Oc3ccon3)cc2)n1Cc1ccc(Cl)cc1 [Compound I-273] | 201
CCC(=O)Nc1c[nH]/c(=N\c2ccc(Oc3ccc(C(=O)OC)nc3)cc2)n(Cc2ccc(Cl)cc2)c1=O [Compound I-091] | 3
CCc1c[nH]/c(=N\c2ccc(Oc3cncc(C(=O)O)c3)cc2)n(Cc2ccc(Cl)cc2)c1=O [Compound I-170] | 54
